pIC50: −log10 of the molar value.
How the values were obtained:
[1] = tested on: A-431; experiment: Cytotoxicity against human A431 cells after 72 hrs by MTT assay; type: functional, cell-based
[2] = target: T1, Epidermal growth factor receptor (Homo sapiens, UniProt P00533); experiment: Inhibition of EGFR after 50 mins by HTRF assay
[3] = target: T1, Epidermal growth factor receptor; details: at 10 µM
[4] = tested on: A-431; experiment: Cellular uptake in human A431 cells after 8 hrs by EPR spectroscopy; type: ADME, cell-based; details: a-431, 8 h
[5] = tested on: A-431; experiment: Cytotoxicity against human A431 cells at 300 uM after 72 hrs by MTT assay; type: functional; details: A-431, 72 h

T1 sequence (P00533 whole entry): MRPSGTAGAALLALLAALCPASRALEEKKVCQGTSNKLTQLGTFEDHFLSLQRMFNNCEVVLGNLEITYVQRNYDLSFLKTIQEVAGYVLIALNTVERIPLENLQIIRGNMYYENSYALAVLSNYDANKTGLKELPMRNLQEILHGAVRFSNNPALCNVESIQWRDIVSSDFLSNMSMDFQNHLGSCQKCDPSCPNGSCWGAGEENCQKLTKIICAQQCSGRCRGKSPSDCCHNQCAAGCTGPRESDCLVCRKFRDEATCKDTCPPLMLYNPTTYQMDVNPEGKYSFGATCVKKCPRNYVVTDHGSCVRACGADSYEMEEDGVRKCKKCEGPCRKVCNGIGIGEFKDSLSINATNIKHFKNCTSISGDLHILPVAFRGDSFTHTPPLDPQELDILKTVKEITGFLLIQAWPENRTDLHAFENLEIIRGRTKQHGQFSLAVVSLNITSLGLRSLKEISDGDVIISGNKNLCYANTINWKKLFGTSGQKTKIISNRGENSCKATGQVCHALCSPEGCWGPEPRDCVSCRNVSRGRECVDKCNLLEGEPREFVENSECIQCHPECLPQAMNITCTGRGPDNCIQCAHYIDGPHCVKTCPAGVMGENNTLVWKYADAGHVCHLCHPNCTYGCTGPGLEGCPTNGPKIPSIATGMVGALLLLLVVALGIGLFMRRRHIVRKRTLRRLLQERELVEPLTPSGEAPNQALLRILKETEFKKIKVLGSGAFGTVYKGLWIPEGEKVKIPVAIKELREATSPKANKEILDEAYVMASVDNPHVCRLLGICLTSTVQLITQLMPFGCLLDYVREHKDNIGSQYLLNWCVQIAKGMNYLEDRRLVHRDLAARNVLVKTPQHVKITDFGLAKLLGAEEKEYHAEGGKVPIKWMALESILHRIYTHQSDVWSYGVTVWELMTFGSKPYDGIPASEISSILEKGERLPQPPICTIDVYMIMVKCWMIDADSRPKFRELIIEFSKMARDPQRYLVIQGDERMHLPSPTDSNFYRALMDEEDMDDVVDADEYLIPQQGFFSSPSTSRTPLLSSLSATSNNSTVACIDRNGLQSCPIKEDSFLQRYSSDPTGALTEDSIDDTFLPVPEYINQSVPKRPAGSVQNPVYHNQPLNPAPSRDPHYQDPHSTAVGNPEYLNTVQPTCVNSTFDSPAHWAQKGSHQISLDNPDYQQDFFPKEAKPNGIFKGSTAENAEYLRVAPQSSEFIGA

SMILES | pIC50 ([1]; Homo sapiens, A-431, 72 h) | pIC50 [2] | inhibition [3] [%] | pIC50 ([1]; a-431) | Drug uptake [4] | inhibition at 300 µM [5] [%]
CC1(C)CC(C(=O)Nc2ccc3ncnc(Nc4cccc(Cl)c4)c3c2)CC(C)(C)N1[O] | 4.57 | 7.19 | 99.4 | – | – | –
Nc1ccc2ncnc(Nc3cccc(Cl)c3)c2c1 | – | – | 98.9 | 4.50 | – | –
COc1cc2ncc(C(=O)O)c(Nc3cccc(Br)c3)c2cc1OC | 4.03 | 5.06 | 60.1 | – | – | –
COc1cc2ncc(C(=O)NC3CC(C)(C)N([O])C(C)(C)C3)c(Nc3cccc(Cl)c3)c2cc1OC | 4.34 | 6.21 | 88.3 | – | – | –
Nc1ccc2ncnc(Nc3ccc(F)c(Cl)c3)c2c1 | – | 7.54 | 99.5 | – | – | –
COc1cc2ncc(C(=O)O)c(Nc3ccc(F)c(Cl)c3)c2cc1OC | 4.05 | 5.03 | 66.5 | – | – | –
Nc1ccc2ncnc(Nc3cccc(Br)c3)c2c1 | 4.46 | – | – | – | – | –
COc1cc2ncc(C(=O)NC3CC(C)(C)N([O])C(C)(C)C3)c(Nc3ccc(F)c(Cl)c3)c2cc1OC | 4.42 | 6.37 | 92.8 | – | Active | –
CC1(C)CCCC(C)(C)N1[O] | < 3.52 | – | – | – | – | < 50
COc1cc2ncc(C(=O)O)c(Nc3cccc(Cl)c3)c2cc1OC | 4.01 | – | – | – | – | –
CC1(C)CC(C(=O)Nc2ccc3ncnc(Nc4ccc(F)c(Cl)c4)c3c2)CC(C)(C)N1[O] | 4.61 | 7.82 | 99.5 | – | Active | –
CC1(C)CC(C(=O)Nc2ccc3ncnc(Nc4cccc(Br)c4)c3c2)CC(C)(C)N1[O] | 4.56 | 7.51 | 99.4 | – | – | –
COc1cc2ncc(C(=O)NC3CC(C)(C)N([O])C(C)(C)C3)c(Nc3cccc(Br)c3)c2cc1OC | 4.36 | 6.47 | 90.3 | – | – | –

— ChEMBL document CHEMBL1944591, “Synthesis and biological evaluation of quinazoline and quinoline bearing 2,2,6,6-tetramethylpiperidine-N-oxyl as potential epidermal growth factor receptor(EGFR) tyrosine kinase inhibitors and EPR bio-probe agents” (Eur J Med Chem, 2012)
